Columns and labels:
Type in all cases: functional, cell-based
HeLa [1] = experiment: Cytotoxicity against human HeLa-JC53 cells
HeLa [2] = experiment: Antiviral activity against HIV1 Y188L mutant in HeLa-JC53 cells
HeLa [3] = experiment: Antiviral activity against wild type HIV1 in HeLa-JC53 cells; conditions: Homo sapiens
HeLa [4] = experiment: Antiviral activity against HIV1 K103N-Y181C mutant in HeLa-JC53 cells

Compound	Activity (HeLa [1])	EC50 (HeLa [2]) [nM]	EC50 (HeLa [3]) [nM]	EC50 (HeLa [4]) [nM]
CN(C)c1ccc(-n2c(SCC(=O)Nc3ccc(S(N)(=O)=O)cc3Cl)nnc2C(F)(F)F)c2ccccc12	Not toxic	7	2	
Cc1cc(C)c2ccccc2c1-n1c(C)nnc1SCC(=O)Nc1ccc(S(N)(=O)=O)cc1Cl	Not toxic	4	0.1	
Cc1ccc2c(C)cc(C)c(-n3c(SCC(=O)Nc4ccc(S(N)(=O)=O)cc4Cl)nnc3C(F)(F)F)c2n1	Not toxic	4	1	
CCc1ccc(-n2c(C)nnc2SCC(=O)Nc2ccc(C)cc2Cl)c2ccccc12		110	1	32
Cc1ccc2c(C)ccc(-n3c(C)nnc3SCC(=O)Nc3ccc(S(N)(=O)=O)cc3Cl)c2c1	Not toxic	6	0.6	
COc1ccc(-n2c(C)nnc2SCC(=O)Nc2ccccc2Br)c2ccccc12		460	0.7	93
Cc1ccc(NC(=O)CSc2nnc(C)n2-c2ccccc2)c(Br)c1		> 10000	100	1300

From ChEMBL document CHEMBL1149511, “Tri-substituted triazoles as potent non-nucleoside inhibitors of the HIV-1 reverse transcriptase” (Bioorg Med Chem Lett, 2006)
